The test system of assay [1] is models of insulin resistance. The assay is described as follows: Deuterated water production from deuterated glucose in models of insulin resistance, response to insulin-sensitizing therapies. Conditions: response to administration of insulin-sensitizing therapies in models of insulin resistance. Type of assay: in vivo. The source says:
Accordingly, the maintenance of normal absolute heavy water production in the face of insulin resistance was highly informative—“normal” heavy water production in this setting represented sufficiency (adequacy) of the pancreatic beta-cell response to the insulin resistance present. […] Full characterization of DM2 susceptibility and progression is thereby enabled through a simple, easily performed and widely usable test.

In a further assay the test system is pre-diabetes. The following applies: metformin therapy, background statement; cited from earlier work.

As to `CN(C)C(=N)N=C(N)N` [metformin], the deuterated water production entry in assay [1] is “increased”. Moreover, in the assay with pre-diabetes, the pancreatic insulin secretion result is reported as “improve pancreatic insulin secretion” and the “progression to DM2” value was “prevent progression to DM2”.

The record behind these values is patent US8741589B2, “Monitoring two dimensions of diabetes pathogenesis” (The Regents of the University of California, priority 2005, dated 2014).
